PubChem BioAssay (NCI)
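These data come from cells grown in 96-well plates and exposed to compound for 48 hours at five concentrations. TGI is the concentration that stops growth completely.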

Tests used:
Experiment in all cases: NCI anticancer screen, dose series, 48 h
SNB-78 CNS = system: SNB-78 CNS
KM20L2 colon = system: KM20L2 colon
DMS 114 small cell lung = system: DMS 114 small cell lung
HOP-18 NSCLC = system: HOP-18 NSCLC
DLD-1 colon = system: DLD-1 colon
DMS 273 small cell lung = system: DMS 273 small cell lung
LXFL 529 NSCLC = system: LXFL 529 NSCLC
XF 498 CNS = system: XF 498 CNS
RXF-631 renal = system: RXF-631 renal

Cn1cnc(CCc2ccccc2)n1
TGI (SNB-78 CNS): > 100 µM
TGI (KM20L2 colon): > 100 µM
TGI (DMS 114 small cell lung): > 100 µM
TGI (HOP-18 NSCLC): > 100 µM
TGI (DLD-1 colon): > 100 µM
TGI (DMS 273 small cell lung): > 100 µM
TGI (LXFL 529 NSCLC): > 100 µM

CC(=O)OCC1OC(OC2C(CSC3OC(COC(C)=O)C(OC(C)=O)C(OC(C)=O)C3OC(C)=O)OC(OC(C)=O)C(OC(C)=O)C2OC(C)=O)C(OC(C)=O)C(OC(C)=O)C1OC(C)=O (stereo unspecified)
TGI (SNB-78 CNS): > 100 µM
TGI (KM20L2 colon): > 100 µM
TGI (XF 498 CNS): > 100 µM
TGI (DMS 114 small cell lung): > 100 µM
TGI (DLD-1 colon): > 100 µM
TGI (DMS 273 small cell lung): > 100 µM
TGI (LXFL 529 NSCLC): > 100 µM

COc1ccc(C2=Nc3ccccc3NC(=O)C2)cc1
TGI (SNB-78 CNS): 70 µM
TGI (KM20L2 colon): > 100 µM
TGI (XF 498 CNS): 36.8 µM
TGI (DMS 114 small cell lung): 59.7 µM
TGI (HOP-18 NSCLC): > 100 µM
TGI (DLD-1 colon): > 100 µM
TGI (DMS 273 small cell lung): > 100 µM
TGI (LXFL 529 NSCLC): > 100 µM
TGI (RXF-631 renal): > 100 µM

O=C1C(Br)=CC2(C=C1Br)CCNC1=C2C(=O)c2ccccc2C1=O
TGI (SNB-78 CNS): > 100 µM
TGI (KM20L2 colon): 91.8 µM
TGI (DMS 114 small cell lung): 22.8 µM
TGI (HOP-18 NSCLC): > 100 µM
TGI (DLD-1 colon): 28.4 µM
TGI (LXFL 529 NSCLC): 35.1 µM
TGI (RXF-631 renal): 26.6 µM

CC1=C(C(=O)O)N2C(=O)[C@@H](NC(=O)C(c3ccc(O)cc3)N3CSC(=S)N(C(C)C)C3)C2SC1 (stereo partly specified)
TGI (SNB-78 CNS): > 100 µM
TGI (KM20L2 colon): > 100 µM
TGI (XF 498 CNS): > 100 µM
TGI (DMS 114 small cell lung): > 100 µM
TGI (HOP-18 NSCLC): > 100 µM
TGI (DLD-1 colon): > 100 µM
TGI (DMS 273 small cell lung): > 100 µM
TGI (LXFL 529 NSCLC): > 100 µM

C=CC/C=C/Cc1csc(C(C)(C)C(O)C/C=C/C(=C)CCNC(=O)OC)n1 (stereo unspecified)
TGI (KM20L2 colon): > 100 µM
TGI (XF 498 CNS): > 100 µM
TGI (DMS 114 small cell lung): 2.91 µM
TGI (DLD-1 colon): > 100 µM
TGI (DMS 273 small cell lung): > 100 µM
TGI (LXFL 529 NSCLC): > 100 µM

CC1SC2=NC3=C(c4ccccc4C3=O)C(c3ccc(F)cc3)N2C1=O (stereo unspecified)
TGI (KM20L2 colon): > 100 µM
TGI (XF 498 CNS): > 100 µM
TGI (DMS 114 small cell lung): > 100 µM
TGI (DLD-1 colon): > 100 µM
TGI (DMS 273 small cell lung): > 100 µM
TGI (LXFL 529 NSCLC): > 100 µM

CC(C)[C@H]1CO[C@]2(C)[C@@H]3CN(Cc4ccccc4)C[C@@H]3C(=O)N12
TGI (KM20L2 colon): > 100 µM
TGI (DMS 114 small cell lung): > 100 µM
TGI (HOP-18 NSCLC): > 100 µM
TGI (DLD-1 colon): > 100 µM
TGI (DMS 273 small cell lung): > 100 µM
TGI (LXFL 529 NSCLC): > 100 µM

Cc1c(/C=N/NC(=O)c2cc(Br)cc(Br)c2O)c(=O)n(-c2ccccc2)n1C
TGI (SNB-78 CNS): > 100 µM
TGI (KM20L2 colon): > 100 µM
TGI (XF 498 CNS): 37.9 µM
TGI (DMS 114 small cell lung): 88.8 µM
TGI (DLD-1 colon): > 100 µM
TGI (DMS 273 small cell lung): > 100 µM
TGI (LXFL 529 NSCLC): > 100 µM

Cc1csc(=S)n1OC(=O)NC1CCCCC1
TGI (SNB-78 CNS): > 100 µM
TGI (XF 498 CNS): > 100 µM
TGI (DMS 114 small cell lung): 44.7 µM
TGI (DLD-1 colon): > 100 µM
TGI (DMS 273 small cell lung): > 79.9 µM
TGI (LXFL 529 NSCLC): > 24 µM

COc1cc(Cn2c3ccccc3c3cc(C)c4c(c32)C=CC(C)(CCC=C(C)C)O4)cc2c1[nH]c1ccccc12 (stereo unspecified)
TGI (SNB-78 CNS): > 100 µM
TGI (KM20L2 colon): > 100 µM
TGI (DMS 114 small cell lung): > 100 µM
TGI (HOP-18 NSCLC): > 100 µM
TGI (DLD-1 colon): > 100 µM
TGI (DMS 273 small cell lung): > 100 µM
TGI (LXFL 529 NSCLC): > 100 µM

NC(=O)N=C(N(Cc1ccccc1)Cc1ccccc1)N(Cc1ccccc1)Cc1ccccc1
TGI (SNB-78 CNS): > 100 µM
TGI (KM20L2 colon): > 100 µM
TGI (DLD-1 colon): > 100 µM
TGI (DMS 273 small cell lung): > 100 µM
TGI (LXFL 529 NSCLC): > 100 µM

O=C(CSc1nnc(-c2ccc(N=Cc3ccc(Cl)cc3)cc2)o1)Nc1ccc(Cl)cc1Cl
TGI (SNB-78 CNS): > 100 µM
TGI (KM20L2 colon): > 100 µM
TGI (XF 498 CNS): 47.9 µM
TGI (HOP-18 NSCLC): 39.8 µM
TGI (DLD-1 colon): 60.5 µM
TGI (DMS 273 small cell lung): 88.7 µM
TGI (LXFL 529 NSCLC): 96.9 µM

Nn1c(NNC(=O)C(=O)Nc2cc(Cl)c(Cl)cc2Cl)n[nH]c1=S
TGI (SNB-78 CNS): > 100 µM
TGI (KM20L2 colon): > 100 µM
TGI (XF 498 CNS): > 100 µM
TGI (DMS 114 small cell lung): > 100 µM
TGI (HOP-18 NSCLC): > 100 µM
TGI (DLD-1 colon): > 100 µM
TGI (LXFL 529 NSCLC): > 100 µM

CC1(C)C(=NNC(=O)C[N+](C)(C)C)C(C)(C)C1=NNC(=O)C[N+](C)(C)C
TGI (SNB-78 CNS): > 100 µM
TGI (KM20L2 colon): > 100 µM
TGI (XF 498 CNS): > 100 µM
TGI (DMS 114 small cell lung): > 100 µM
TGI (HOP-18 NSCLC): > 100 µM
TGI (DLD-1 colon): > 100 µM
TGI (DMS 273 small cell lung): > 100 µM
TGI (LXFL 529 NSCLC): > 100 µM
TGI (RXF-631 renal): > 100 µM

C[C@H](OCc1ccccc1)C(=O)N1CCS(=O)(=O)N2CCC[C@H]2C1=O
TGI (SNB-78 CNS): > 100 µM
TGI (KM20L2 colon): > 100 µM
TGI (DMS 114 small cell lung): > 100 µM
TGI (HOP-18 NSCLC): > 100 µM
TGI (DLD-1 colon): > 100 µM
TGI (LXFL 529 NSCLC): > 100 µM
TGI (RXF-631 renal): > 100 µM
